Assay results published in patent publication US20110152183A1, “DERIVATISED HYBRID PEPTIDES OF AMYLIN AND SALMON CALCITONIN” (Novo Nordisk A/S, priority 2008, published 2011).
Peptide text beside a SMILES is read from it.

Molecular target: T1, Amylin 3(a) receptor (human calcitonin receptor (CTa) + RAMP-3) (Homo sapiens, UniProt O60896+P30988)
T1 construct: expressed in transfected cells; host or cells: BHK570 (baby hamster kidney) cells, stably transfected, with a CRE-luciferase reporter
Experiment: Amylin luciferase assay (II), CRE luciferase reporter in BHK cells
Type: cell-based
Conditions: BHK Amylin 3(a)//CRE-luc cells, 4 hours incubation
Description: It has previously been published (Poyner D R et al 2002, Pharmacological Reviews 54 (2) 233-246) that activation of Amylin receptors (coexpression of Calcitonin receptor and receptor activity modifying peptides RAMPs) by Amylin leads to an increase in the intracellular concentration of cAMP. Consequently, transcription is activated at promotors containing multiple copies of the cAMP response element (CRE). It is thus possible to measure Amylin activity by use of a CRE luciferase reporter gene introduced into BHK cells also expressing an Amylin receptor.
2. Construction of An Amylin 3(a)/CRE-Luc Cell Line
A BHK570 cell line stably transfected with the human calcitonin receptor (CTa) and a CRE-responsive luciferase reportergene. The cell line was further transfected with RAMP-3, using standard methods. This turns the Calcitonin receptor into an Amylin 3(a) receptor. Methotrexate, Neomycin, and Hygromycin are selection markers for luciferase, the Calcitonin receptor, and RAMP-3, respectively.
3. Amylin Luciferase Assay
To perform activity assays, BHK Amylin 3(a)//CRE-luc cells were seeded in white 96 well culture plates at a density of about 20.000 cells/well. […] Finally, luminescence was measured on a TopCounter (Packard) in SPC (single photon counting) mode.

T1 sequence (O60896 24-148): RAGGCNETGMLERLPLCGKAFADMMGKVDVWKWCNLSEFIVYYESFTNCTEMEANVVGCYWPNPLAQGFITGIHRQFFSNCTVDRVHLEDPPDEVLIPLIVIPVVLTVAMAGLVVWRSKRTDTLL
T1 sequence (P30988 25-474): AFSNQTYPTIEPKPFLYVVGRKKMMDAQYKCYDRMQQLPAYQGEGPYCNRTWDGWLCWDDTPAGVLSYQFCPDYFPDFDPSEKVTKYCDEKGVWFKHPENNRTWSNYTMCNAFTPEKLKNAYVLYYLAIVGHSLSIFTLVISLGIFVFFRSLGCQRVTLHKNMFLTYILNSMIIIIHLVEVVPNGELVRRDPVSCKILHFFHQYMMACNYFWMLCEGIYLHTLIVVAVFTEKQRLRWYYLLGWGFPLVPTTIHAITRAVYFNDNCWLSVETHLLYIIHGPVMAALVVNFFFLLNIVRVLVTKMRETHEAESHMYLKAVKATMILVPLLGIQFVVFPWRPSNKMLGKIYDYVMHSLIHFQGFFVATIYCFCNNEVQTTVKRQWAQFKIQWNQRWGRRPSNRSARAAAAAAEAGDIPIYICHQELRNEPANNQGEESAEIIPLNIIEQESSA

EC50: 3 pM
Structure (SMILES): CC(C)C[C@H](NC(=O)[C@H](C)NC(=O)[C@@H]1CSSC[C@H](NC(=O)[C@@H](N)CCCCN)C(=O)N[C@@H](CC(N)=O)C(=O)N[C@@H]([C@@H](C)O)C(=O)N[C@@H](C)C(=O)N[C@@H]([C@@H](C)O)C(=O)N1)C(=O)NCC(=O)N[C@@H](CCCNC(=N)N)C(=O)N[C@@H](CC(C)C)C(=O)N[C@@H](CO)C(=O)N[C@@H](CCC(N)=O)C(=O)N[C@@H](CCC(=O)O)C(=O)N[C@@H](CC(C)C)C(=O)N[C@@H](Cc1c[nH]cn1)C(=O)N[C@@H](CCCNC(=N)N)C(=O)N[C@@H](CC(C)C)C(=O)N[C@@H](CCC(N)=O)C(=O)N[C@H](C(=O)N[C@@H](Cc1ccc(O)cc1)C(=O)N1CCC[C@H]1C(=O)N[C@@H](CCCNC(=N)N)C(=O)N[C@H](C(=O)N[C@@H](CC(N)=O)C(=O)N[C@H](C(=O)NCC(=O)N[C@@H](CO)C(=O)N[C@@H](CC(N)=O)C(=O)N[C@H](C(=O)N[C@@H](Cc1ccc(O)cc1)C(N)=O)[C@@H](C)O)[C@@H](C)O)[C@@H](C)O)[C@@H](C)O [Example 4, Amylin (1-8)-[Arg11,Arg18]sCT (9-27)-amylin (33-37)] (HELM PEPTIDE1{K.C.N.T.A.T.C.A.L.G.R.L.S.Q.E.L.H.R.L.Q.T.Y.P.R.T.N.T.G.S.N.T.Y.[am]}$PEPTIDE1,PEPTIDE1,2:R3-7:R3$$$V2.0; N-terminus assumed)
